# Reference: US20070032529A1, “Pyrazole compounds and their use as antidiabetes agents” (Japan Tobacco Inc., priority 2005, published 2007)
# Where a name gives a salt, the structure may show the parent alone.
# What was measured:
# db/db mice = experiment: Measuring blood plasma glucose concentration in db/db mice (hypoglycemic effect); type: in vivo; design: key: ++: compounds exhibiting statistically significant hypoglycemic effect at a dose of 10 mg/kg or less; +: compounds exhibiting not significant but obvious hypoglycemic effect at a dose of 10 mg/kg; details: for vivo (hypoglycemic effect in db/db mice): db/db mice fasted 4 h, oral administration, plasma glucose 1 and 3 hours after administration, dose 10 mg/kg or less, Dunnett test vs solvent; for vivo (hypoglycemic effect): db/db mice, blood plasma glucose, dose of 10 mg/kg or less
# Outline: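 db/db mice aged 9-18 weeks, grouped 5 or 8 per group matched on plasma glucose, fasted 4 h, then dosed orally with compound or 0.5% methylcellulose vehicle. Plasma glucose measured 1 and 3 h post-dose; each timepoint compared against vehicle by Dunnett test.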
# [1] = target: T1, recombinant human liver glycogen phosphorylase (Homo sapiens, UniProt P06737); experiment: Measuring liver glycogen phosphorylase activity (forward reaction system, NADPH absorbance at 340 nm); type: biochemical
# T1 construct: made in house; host or cells: Sf9 insect cells (crude homogenate, diluted, used as the enzyme solution)
# T1 sequence (P06737 1-847): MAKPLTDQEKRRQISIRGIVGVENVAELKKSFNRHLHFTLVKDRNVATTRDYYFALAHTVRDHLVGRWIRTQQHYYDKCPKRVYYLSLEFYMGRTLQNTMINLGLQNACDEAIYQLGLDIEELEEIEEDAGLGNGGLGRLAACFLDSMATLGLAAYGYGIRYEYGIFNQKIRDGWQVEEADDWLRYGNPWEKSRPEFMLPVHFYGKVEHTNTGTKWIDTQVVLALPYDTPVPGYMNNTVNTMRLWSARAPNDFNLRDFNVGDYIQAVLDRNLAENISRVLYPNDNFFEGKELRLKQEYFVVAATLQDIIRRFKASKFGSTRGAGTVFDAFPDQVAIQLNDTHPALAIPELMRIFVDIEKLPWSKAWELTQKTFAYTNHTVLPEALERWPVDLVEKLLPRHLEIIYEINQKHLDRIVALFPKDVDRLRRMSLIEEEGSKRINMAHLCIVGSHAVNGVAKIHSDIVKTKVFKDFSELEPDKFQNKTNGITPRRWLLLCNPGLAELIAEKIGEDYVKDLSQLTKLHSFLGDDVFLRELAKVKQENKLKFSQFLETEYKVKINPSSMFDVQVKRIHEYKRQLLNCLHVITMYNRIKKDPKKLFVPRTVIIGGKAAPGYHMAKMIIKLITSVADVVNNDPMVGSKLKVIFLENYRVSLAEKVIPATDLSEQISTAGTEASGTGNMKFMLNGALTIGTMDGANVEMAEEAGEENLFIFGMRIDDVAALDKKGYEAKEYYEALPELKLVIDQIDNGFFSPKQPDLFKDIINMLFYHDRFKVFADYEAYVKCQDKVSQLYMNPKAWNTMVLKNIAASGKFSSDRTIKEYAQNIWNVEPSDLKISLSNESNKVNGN
# Outline: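 Sf9 homogenate expressing the enzyme, in pH 6.8 BES/EDTA, with glycogen and phosphate substrate plus glucose, coupled via phosphoglucomutase/G6PDH to NADPH formation. A340 change over 75 min at room temperature, blank-corrected; IC50 linearly interpolated between the two concentrations bracketing 50% inhibition versus 1% DMSO control.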
# [2] = enzyme inhibitory activity with respect to liver glycogen phosphorylase, class symbols
# [3] = human liver glycogen phosphorylase, class symbol
Compound,vivo (hypoglycemic effect in db/db mice) (db/db mice),"IC50 [1, 2]",vivo (hypoglycemic effect) (db/db mice),"IC50 [1, 3]",vivo (hypoglycemic effect in db/db mice) (db/db mice; 10 mg/kg)
COCCN(C(=O)c1cc(NC(=O)c2cc(F)c(F)cc2Cl)[nH]n1)c1ccc(C(=O)O)cc1 [Example 4-48],++,< 100 nM,,,
Cc1ccnc(CNC(=O)c2cc(NC(=O)c3cc(F)c(F)cc3Cl)[nH]n2)c1 [Example 2-9],+,< 100 nM,,,
CS(=O)(=O)Nc1cccc(CNC(=O)c2cc(NC(=O)c3cc(F)c(F)cc3Cl)[nH]n2)c1 [Example 2-15],+,< 100 nM,,,
O=C(NCc1c(Cl)cccc1Cl)c1cc(NC(=O)c2cc(F)c(F)cc2Cl)[nH]n1 [Example 1-134],+,< 100 nM,,,
CCCCN(C(=O)c1cc(NC(=O)c2cc(F)c(F)cc2Cl)[nH]n1)C1CCOCC1 [Example 1-96],+,< 100 nM,,,
Cl.O=C(NCc1ccc(N2CCOCC2)nc1)c1cc(NC(=O)c2cc(F)c(F)cc2Cl)[nH]n1 [Example 5-25],++,< 100 nM,,,
COC(=O)c1cccc(CNC(=O)c2cc(NC(=O)c3cc(F)c(F)cc3Cl)[nH]n2)c1 [Example 3-38],+,< 100 nM,,,
N#Cc1ccc(CNC(=O)c2cc(NC(=O)c3cc(F)c(F)cc3Cl)[nH]n2)cc1 [Example 6-33],,,+,< 100 nM,
CN(C)C=Nc1cccc(CNC(=O)c2cc(NC(=O)c3cc(F)c(F)cc3Cl)[nH]n2)c1.Cl [Example 6-22],,,+,< 100 nM,
CC(C)Oc1ncccc1CNC(=O)c1cc(NC(=O)c2cc(F)c(F)cc2Cl)[nH]n1 [Example 1-24],+,< 100 nM,,,
O=C(NCc1csc(-c2cccnc2)n1)c1cc(NC(=O)c2cc(F)c(F)cc2Cl)[nH]n1 [Example 1-41],+,< 100 nM,,,
COCCN(C(=O)c1cc(NC(=O)c2cc(F)c(F)cc2Cl)[nH]n1)C1CCCCC1 [Example 1-90],+,< 100 nM,,,
CN(C(=O)c1cc(NC(=O)c2cc(F)c(F)cc2Cl)[nH]n1)c1ccc(-c2nc(=O)o[nH]2)cc1 [Example 6-12],,,+,< 100 nM,
Cl.O=C(NCc1ccc2c(c1)OCO2)c1cc(NC(=O)c2cc(F)c(F)cc2Cl)[nH]n1 [Example 1-84],++,< 100 nM,,,
O=C(NCc1cccc(F)c1F)c1cc(NC(=O)c2cc(F)c(F)cc2Cl)[nH]n1 [Example 1-18],+,< 100 nM,,,
COc1ccc(CNC(=O)c2cc(NC(=O)c3cc(F)c(F)cc3Cl)[nH]n2)cn1 [Example 1-12],,< 100 nM,,,++
O=C(NCc1ccc(Cl)cc1)c1cc(NC(=O)c2cc(F)c(F)cc2Cl)[nH]n1 [Example 1-71],+,< 100 nM,,,
"Cc1ccnc(C)c1CNC(=O)c1cc(NC(=O)c2cc(F)c(F)cc2Cl)[nH]n1 [Example 1-3-1, 5-(2-chloro-4,5-difluoro-benzoylamino)-1H-pyrazole-3-carboxylic acid (2,4-dimethyl-pyridin-3-ylmethyl)-amide dihydrochloride]",++,< 100 nM,,,
"O=C(NCc1ccccc1)c1cc(NC(=O)c2cc(F)c(F)cc2Cl)[nH]n1 [Example 3-2, 5-(2-chloro-4,5-difluoro-benzoylamino)-1H-pyrazole-3-carboxylic acid benzylamide]",+,100 to 300 nM,,,

Compound,vivo (hypoglycemic effect in db/db mice) (db/db mice),"IC50 [1, 2]",vivo (hypoglycemic effect) (db/db mice),"IC50 [1, 3]",vivo (hypoglycemic effect in db/db mice) (db/db mice; 10 mg/kg)
O=C(NCc1ccc(F)nc1)c1cc(NC(=O)c2cc(F)c(F)cc2Cl)[nH]n1 [Example 2-13],+,< 100 nM,,,
O=C(NCc1ccco1)c1cc(NC(=O)c2cc(F)c(F)cc2Cl)[nH]n1 [Example 3-25],+,< 100 nM,,,
COc1ccccc1CNC(=O)c1cc(NC(=O)c2cc(F)c(F)cc2Cl)[nH]n1 [Example 1-66],+,< 100 nM,,,
Cc1cc(F)c(F)cc1C(=O)Nc1cc(C(=O)NCc2cccnc2)n[nH]1 [Example 7-10],,,++,< 100 nM,
COCCCN(C(=O)c1cc(NC(=O)c2cc(F)c(F)cc2Cl)[nH]n1)C1CCCCC1 [Example 1-99],+,< 100 nM,,,
Cl.Cn1c(CNC(=O)c2cc(NC(=O)c3cc(F)c(F)cc3Cl)[nH]n2)nc2ccccc21 [Example 1-50],+,< 100 nM,,,
CCCN(C(=O)c1cc(NC(=O)c2cc(F)c(F)cc2Cl)[nH]n1)C1CCCCC1 [Example 1-88],+,< 100 nM,,,
O=C(O)c1ccc(CNC(=O)c2cc(NC(=O)c3cc(F)c(F)cc3Cl)[nH]n2)cc1 [Example 1-73],+,< 100 nM,,,
Cl.O=C(NCc1ccccn1)c1cc(NC(=O)c2cc(F)c(F)cc2Cl)[nH]n1 [Example 3-20],+,< 100 nM,,,
COc1ccc(CNC(=O)c2cc(NC(=O)c3cc(F)c(F)cc3Cl)[nH]n2)c(OC)n1 [Example 3-46],+,< 100 nM,,,
CCCN(Cc1ccc(Cl)nc1)C(=O)c1cc(NC(=O)c2cc(F)c(F)cc2Cl)[nH]n1 [Example 1-133],+,< 100 nM,,,
COCCN(C(=O)c1cc(NC(=O)c2cc(F)c(F)cc2Cl)[nH]n1)c1ccccc1 [Example 4-34],+,< 100 nM,,,
Cc1ccc(CNC(=O)c2cc(NC(=O)c3cc(F)c(F)cc3Cl)[nH]n2)nc1 [Example 2-10],+,< 100 nM,,,
Cc1nc(N2CCOCC2)sc1CNC(=O)c1cc(NC(=O)c2cc(F)c(F)cc2Cl)[nH]n1 [Example 1-63],+,< 100 nM,,,
O=C(NCc1cccnc1Oc1ccccc1)c1cc(NC(=O)c2cc(F)c(F)cc2Cl)[nH]n1 [Example 1-25],+,< 100 nM,,,
CN(C)C=Nc1ccccc1CNC(=O)c1cc(NC(=O)c2cc(F)c(F)cc2Cl)[nH]n1.Cl [Example 6-21],,,++,< 100 nM,
Cc1cc(F)c(F)cc1C(=O)Nc1cc(C(=O)N(C)c2ccc(C(=O)[O-])cc2)n[nH]1.[Na+] [Example 7-1],,,+,< 100 nM,
CCCN(Cc1ccc(OC)nc1)C(=O)c1cc(NC(=O)c2cc(F)c(F)cc2Cl)[nH]n1 [Example 1-116],++,< 100 nM,,,
